According to patent US7880007B2, “Bicyclic substituted phenyl piperidine modulators of muscarinic receptors” (Vertex Pharmaceuticals Incorporated, priority 2004, dated 2011):

How the values were obtained:
Assay type in all cases: cell-based
M3 muscarinic receptor = target: T1, M3 muscarinic receptor (Homo sapiens, UniProt P20309); experiment: Functional mobilization of intracellular calcium (FLIPR), M3-CHO cells; conditions: for M3 Activity: M3-CHO cells, calcium mobilization (FLIPR)
T1 construct: expressed in transfected cells; host or cells: CHO (M3-CHO)
Procedure, shortened: (§1)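 Calcium mobilisation read by FLIPR over 60 s (ex 488/em 540 nm) in recombinant muscarinic CHO lines loaded with calcium dye plus 1 mM probenecid. Compounds tested as agonists alone, or as inhibitors against EC80 carbachol after 15 min pre-incubation or co-addition; 0.5% DMSO; efficacy scaled to carbachol maximal response.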

M4 muscarinic receptor = target: T2, M4 muscarinic receptor (Homo sapiens, UniProt P08173); experiment: Functional mobilization of intracellular calcium (FLIPR), M4-CHO cells; conditions: for M4 Activity: M4-CHO cells, calcium mobilization (FLIPR)
T2 construct: expressed in transfected cells; host or cells: CHO (M4-CHO)
T2 sequence (P08173 1-479): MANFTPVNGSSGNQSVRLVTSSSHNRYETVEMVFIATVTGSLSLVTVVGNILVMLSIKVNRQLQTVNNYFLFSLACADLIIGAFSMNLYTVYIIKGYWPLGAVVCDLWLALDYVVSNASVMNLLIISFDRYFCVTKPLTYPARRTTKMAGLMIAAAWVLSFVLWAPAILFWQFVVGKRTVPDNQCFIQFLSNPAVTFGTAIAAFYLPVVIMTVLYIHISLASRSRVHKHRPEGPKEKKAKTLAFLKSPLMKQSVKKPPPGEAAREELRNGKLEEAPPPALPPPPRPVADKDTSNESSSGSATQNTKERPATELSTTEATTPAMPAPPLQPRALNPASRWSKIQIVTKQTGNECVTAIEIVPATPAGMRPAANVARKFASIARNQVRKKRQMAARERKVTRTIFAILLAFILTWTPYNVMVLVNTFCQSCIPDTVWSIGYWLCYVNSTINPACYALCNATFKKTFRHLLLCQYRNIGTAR
Procedure, shortened: as §1

M2 muscarinic receptor = target: T3, M2 muscarinic receptor (Homo sapiens, UniProt P08172); experiment: Functional mobilization of intracellular calcium (FLIPR), M2-CHO cells; conditions: for M2 Activity: M2-CHO cells, calcium mobilization (FLIPR)
T3 construct: expressed in transfected cells; host or cells: CHO (M2-CHO)
T3 sequence (P08172 1-466): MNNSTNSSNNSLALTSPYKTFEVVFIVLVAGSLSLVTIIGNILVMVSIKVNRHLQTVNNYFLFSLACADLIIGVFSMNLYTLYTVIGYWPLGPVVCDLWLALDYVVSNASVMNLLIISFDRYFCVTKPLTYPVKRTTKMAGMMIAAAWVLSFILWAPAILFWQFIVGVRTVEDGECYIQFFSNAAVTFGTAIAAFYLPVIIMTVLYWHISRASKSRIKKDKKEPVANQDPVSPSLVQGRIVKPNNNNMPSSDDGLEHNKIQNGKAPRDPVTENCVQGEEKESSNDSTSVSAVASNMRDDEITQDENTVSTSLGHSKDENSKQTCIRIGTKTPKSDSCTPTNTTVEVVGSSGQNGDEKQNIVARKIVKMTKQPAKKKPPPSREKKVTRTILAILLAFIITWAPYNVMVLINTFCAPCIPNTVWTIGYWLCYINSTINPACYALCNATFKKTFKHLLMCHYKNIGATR
Procedure, shortened: as §1

M1 muscarinic receptor = target: T4, M1 muscarinic receptor (Homo sapiens, UniProt P11229); experiment: Functional mobilization of intracellular calcium (FLIPR), M1-CHO cells; conditions: for M1 Activity: M1-CHO cells, calcium mobilization (FLIPR)
T4 construct: expressed in transfected cells; host or cells: CHO (M1-CHO)
T4 sequence (P11229 1-460): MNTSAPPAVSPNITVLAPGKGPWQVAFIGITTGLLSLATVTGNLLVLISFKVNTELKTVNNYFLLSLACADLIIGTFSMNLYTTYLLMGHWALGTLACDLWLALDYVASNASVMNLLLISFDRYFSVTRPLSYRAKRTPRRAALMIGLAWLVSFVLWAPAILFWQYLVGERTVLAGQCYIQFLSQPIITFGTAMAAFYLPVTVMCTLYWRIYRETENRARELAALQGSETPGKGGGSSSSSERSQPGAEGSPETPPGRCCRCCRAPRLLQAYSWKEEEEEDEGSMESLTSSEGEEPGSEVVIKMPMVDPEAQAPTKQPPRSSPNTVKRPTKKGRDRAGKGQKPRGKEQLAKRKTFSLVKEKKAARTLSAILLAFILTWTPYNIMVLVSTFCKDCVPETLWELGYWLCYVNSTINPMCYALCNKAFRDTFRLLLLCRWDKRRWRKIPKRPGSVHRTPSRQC
Procedure, shortened: as §1

[1] = 100% efficacy = maximum response obtained with the Carbachol control

T1 sequence (P20309 whole entry): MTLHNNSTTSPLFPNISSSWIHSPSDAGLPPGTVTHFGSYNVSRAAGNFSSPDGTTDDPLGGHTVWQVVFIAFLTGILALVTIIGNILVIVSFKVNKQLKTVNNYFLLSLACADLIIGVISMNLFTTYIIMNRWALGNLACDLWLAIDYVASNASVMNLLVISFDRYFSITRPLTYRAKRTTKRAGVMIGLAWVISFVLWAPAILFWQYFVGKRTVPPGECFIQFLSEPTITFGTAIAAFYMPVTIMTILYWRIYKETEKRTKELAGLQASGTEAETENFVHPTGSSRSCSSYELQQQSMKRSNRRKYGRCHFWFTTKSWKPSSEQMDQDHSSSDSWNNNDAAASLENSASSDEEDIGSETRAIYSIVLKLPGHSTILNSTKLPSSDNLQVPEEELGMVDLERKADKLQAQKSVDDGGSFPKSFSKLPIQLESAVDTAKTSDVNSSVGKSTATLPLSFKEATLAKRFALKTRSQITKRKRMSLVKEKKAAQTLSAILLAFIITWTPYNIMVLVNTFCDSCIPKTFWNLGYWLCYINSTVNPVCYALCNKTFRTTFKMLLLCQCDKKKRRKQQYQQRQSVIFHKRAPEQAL

| SMILES | Emax (M3 muscarinic receptor; [1]) | Emax (M4 muscarinic receptor; [1]) | Emax (M2 muscarinic receptor; [1]) | Emax (M1 muscarinic receptor; [1]) | M3 Activity (M3 muscarinic receptor) | M4 Activity (M4 muscarinic receptor) | M2 Activity (M2 muscarinic receptor) | M1 Activity (M1 muscarinic receptor) | M3 Efficacy (M3 muscarinic receptor; [1]) | M4 Efficacy (M4 muscarinic receptor; [1]) | M2 Efficacy (M2 muscarinic receptor; [1]) | M1 Efficacy (M1 muscarinic receptor; [1]) |
| --- | --- | --- | --- | --- | --- | --- | --- | --- | --- | --- | --- | --- |
| Clc1ccccc1-c1ccccc1C1CCN([C@H]2C[C@H]3CC[C@H]2C3)CC1 [Compound 88] | < 25% | 25 to 100% | < 25% | < 25% | + (activity was measured to be greater than 5.0 μM) | ++ (activity was measured to be from 1.0 μM to 5.0 μM) | + (activity was measured to be greater than 5.0 μM) | + (activity was measured to be greater than 5.0 μM) | – | – | – | – |
| COc1ccccc1C1CCN(C2CCOCC2)CC1 [Compound 90] | < 25% | 25 to 100% | < 25% | 25 to 100% | + (activity was measured to be greater than 5.0 μM) | +++ (activity was measured to be less than 1.0 μM) | + (activity was measured to be greater than 5.0 μM) | + (activity was measured to be greater than 5.0 μM) | – | – | – | – |
| COc1ccc(-c2ccccc2C#N)cc1C1CCN([C@@H]2C[C@H]3CC[C@H]2C3)CC1 [Compound 92] | < 25% | < 25% | < 25% | < 25% | + (activity was measured to be greater than 5.0 μM) | + (activity was measured to be greater than 5.0 μM) | + (activity was measured to be greater than 5.0 μM) | + (activity was measured to be greater than 5.0 μM) | – | – | – | – |
| Cc1ccccc1C1CCN([C@H]2C[C@H]3CC[C@H]2C3)CC1 [Compound 93] | – | – | – | – | + (activity was measured to be greater than 5.0 μM) | +++ (activity was measured to be less than 1.0 μM) | + (activity was measured to be greater than 5.0 μM) | ++ (activity was measured to be from 1.0 μM to 5.0 μM) | + (efficacy was calculated to be less than 25%) | ++ (efficacy was calculated to be from 100% to 25%) | + (efficacy was calculated to be less than 25%) | ++ (efficacy was calculated to be from 100% to 25%) |
| CCOC(=O)N1CCC(CN2CCC(c3cc(C(F)(F)F)ccc3C)CC2)CC1 [Compound 94] | < 25% | 25 to 100% | 25 to 100% | 25 to 100% | ++ (activity was measured to be from 1.0 μM to 5.0 μM) | +++ (activity was measured to be less than 1.0 μM) | +++ (activity was measured to be less than 1.0 μM) | +++ (activity was measured to be less than 1.0 μM) | – | – | – | – |
| COc1ccc(-c2cccc(C#N)c2)cc1C1CCN([C@H]2C[C@H]3CC[C@H]2C3)CC1 [Compound 97] | < 25% | 25 to 100% | < 25% | < 25% | + (activity was measured to be greater than 5.0 μM) | + (activity was measured to be greater than 5.0 μM) | + (activity was measured to be greater than 5.0 μM) | + (activity was measured to be greater than 5.0 μM) | – | – | – | – |

Further lines, with some results ahead:

| Emax (M3 muscarinic receptor; [1]) | Emax (M4 muscarinic receptor; [1]) | Emax (M2 muscarinic receptor; [1]) | Emax (M1 muscarinic receptor; [1]) | SMILES | M3 Activity (M3 muscarinic receptor) | M4 Activity (M4 muscarinic receptor) | M2 Activity (M2 muscarinic receptor) | M1 Activity (M1 muscarinic receptor) | M3 Efficacy (M3 muscarinic receptor; [1]) | M4 Efficacy (M4 muscarinic receptor; [1]) | M2 Efficacy (M2 muscarinic receptor; [1]) | M1 Efficacy (M1 muscarinic receptor; [1]) |
| --- | --- | --- | --- | --- | --- | --- | --- | --- | --- | --- | --- | --- |
| < 25% | < 25% | < 25% | < 25% | CCN(CC)C(=O)c1ccc(-c2ccc(OC)c(C3CCN([C@H]4C[C@H]5CC[C@H]4C5)CC3)c2)cc1 [Compound 98] | + (activity was measured to be greater than 5.0 μM) | ++ (activity was measured to be from 1.0 μM to 5.0 μM) | + (activity was measured to be greater than 5.0 μM) | + (activity was measured to be greater than 5.0 μM) | – | – | – | – |
| < 25% | 25 to 100% | < 25% | < 25% | CNC(=O)c1ccc(-c2ccc(OC)c(C3CCN(C4CC5CCC(C5)C4)CC3)c2)cc1Cl (stereo not drawn) [Compound 100] | + (activity was measured to be greater than 5.0 μM) | ++ (activity was measured to be from 1.0 μM to 5.0 μM) | + (activity was measured to be greater than 5.0 μM) | + (activity was measured to be greater than 5.0 μM) | – | – | – | – |
| < 25% | 25 to 100% | < 25% | < 25% | COc1ccc(-c2ccc(S(C)(=O)=O)cc2)cc1C1CCN([C@H]2C[C@H]3CC[C@H]2C3)CC1 [Compound 102] | + (activity was measured to be greater than 5.0 μM) | ++ (activity was measured to be from 1.0 μM to 5.0 μM) | + (activity was measured to be greater than 5.0 μM) | + (activity was measured to be greater than 5.0 μM) | – | – | – | – |
| < 25% | < 25% | < 25% | < 25% | COc1c(F)cc(F)cc1C1CCN([C@@H]2C[C@H]3CC[C@H]2C3)CC1 [Compound 103] | + (activity was measured to be greater than 5.0 μM) | ++ (activity was measured to be from 1.0 μM to 5.0 μM) | + (activity was measured to be greater than 5.0 μM) | + (activity was measured to be greater than 5.0 μM) | – | – | – | – |
| < 25% | 25 to 100% | < 25% | < 25% | COc1ccc(F)cc1C1CCN(CC2CC3CCC2CC3)CC1 (stereo not drawn) [Compound 104] | + (activity was measured to be greater than 5.0 μM) | ++ (activity was measured to be from 1.0 μM to 5.0 μM) | + (activity was measured to be greater than 5.0 μM) | + (activity was measured to be greater than 5.0 μM) | – | – | – | – |
| < 25% | 25 to 100% | 25 to 100% | 25 to 100% | COc1ccc(-c2ccc(C(C)(C)C#N)cc2)cc1C1CCN(C2CCCCC2)CC1 [Compound 105] | + (activity was measured to be greater than 5.0 μM) | + (activity was measured to be greater than 5.0 μM) | + (activity was measured to be greater than 5.0 μM) | ++ (activity was measured to be from 1.0 μM to 5.0 μM) | – | – | – | – |
